Laboratory results as given in paper PMC7462607 (eLife, 2020).
Where “and” joins values, the source holds several entries; their conditions need not be identical. Identical values can stand only once.

Experiments:
CDK12 = target: T1, CDK12 (Homo sapiens, UniProt Q9NYV4); experiment: Western blotting of CDK12 protein level in A549 cells; type: cell-based; conditions: A549, after 8 hr of treatment
T1 construct: Western blotting of CDK12 and CCNK from A549 cells treated with HQ461; endogenous in cells; host or cells: A549
Procedure: Standard SDS-PAGE and western blotting procedures were used with the following modifications. For preparation of total lysates, cells were rinsed with DPBS to remove residual medium and then lysed in 20 mM HEPES-NaOH, pH 8.0, 10 mM NaCl, 2 mM MgCl2, 1% SDS freshly supplemented with 0.5 units/µL of benzonase and 1x cOmplete, Mini, EDTA-free protease inhibitor cocktail (Roche, Bazel, Switzerland). Protein concentrations of the resulting lysates were quantified by the BCA method. Between 30 to 60 µg of proteins were resolved on SDS-PAGE and transferred to nitrocellulose membranes with a pore size of 0.5 μm. Membranes were blocked in 5% nonfat milk PBST (0.1% v/v Tween-20) for 30 min before blotting with antibodies. […]

CCNK = experiment: Western blotting of CCNK protein level in A549 cells; type: cell-based, Homo sapiens
Procedure: Standard SDS-PAGE and western blotting procedures were used with the following modifications. For preparation of total lysates, cells were rinsed with DPBS to remove residual medium and then lysed in 20 mM HEPES-NaOH, pH 8.0, 10 mM NaCl, 2 mM MgCl2, 1% SDS freshly supplemented with 0.5 units/µL of benzonase and 1x cOmplete, Mini, EDTA-free protease inhibitor cocktail (Roche, Bazel, Switzerland). Protein concentrations of the resulting lysates were quantified by the BCA method. Between 30 to 60 µg of proteins were resolved on SDS-PAGE and transferred to nitrocellulose membranes with a pore size of 0.5 μm. Membranes were blocked in 5% nonfat milk PBST (0.1% v/v Tween-20) for 30 min before blotting with antibodies. The following primary antibodies were used by dilution in 5% nonfat milk PBST: anti-NRF2 (Abcam, Cambridge, UK, ab62352, 1:4,000), anti-β-Actin-HRP (Huaxingbio, Beijing, China, HX18271,1:10,000), anti-α-Tubulin-HRFP (MBL Life Science, Japan, PM054-7, 1:10,000), anti-DDB1 (Abcam, Cambridge, UK, ab109027, 1:10,000), anti-RBX1 (Proteintech, Wuhan, China, 14895–1-AP, 1:5,000), anti-UBE2G1 (Proteintech, Wuhuan, China, 12012–1-AP, 1:2,000), anti-CDK12 (Cell Signaling Technology, Danvers, USA, 11973S,1:4,000), anti-CCNK (Bethyl lab, Montgomery, USA, A301-939A-T,1:4,000), anti-FLAG-HRP (Sigma-Aldrich, MO, USA, A8592, 1:10,000), anti-HA (BioLegend, San Diego, USA, 901533, 1:4,000), anti-RNA polymerase II subunit B1 (phospho CTD Ser-2) clone 3E10 (Sigma-Aldrich, MO, USA, 04–1571, 1:5,000), and anti-RNA polymerase II CTD repeat YSPTSPS antibody clone 8WG16 (Abcam, Cambridge, UK, ab817, 1:5,000). The following HRP-linked secondary antibodies were used by dilution in PBST: anti-rabbit IgG (Cell Signaling Technology, Danvers, USA, 7074S, 1:10,000), anti-mouse IgG (Zsbio, Beijing, China, ZB-2305, 1:10,000), and anti-rat IgG, (Sino Biological, Beijing, China, SSA005, 1:10,000). M5 HiPer ECL Western HRP Substrate (Mei5bio, Beijing, China, MF074-01) was used for the detection of HRP enzymatic activity. Western blot images were taken with a VILBER FUSION FX7 imager.

[1] = target: T2, CDK13 kinase domain/CCNK-3xHA (Homo sapiens, UniProt Q14004); experiment: Co-expression of 3xFLAG-CDK13 kinase domain with CCNK-3xHA; type: cell-based; conditions: 293T, HQ461 8 hr; not with G709E or G709R
T2 construct: ORFs encoding residues 715–1052 of CDK12 and residues 693–1030 of CDK13; expressed in transfected cells; host or cells: 293T
Procedure: ORFs encoding residues 715–1052 of CDK12 and residues 693–1030 of CDK13 were cloned into a pCDNA3.1-N-3xFLAG vector. For setting up cells for co-transfection, 0.6 million 293 T cells were seeded per well in 6-well tissue-culture plates and allowed to attach to plates overnight. These cells were then transfected with 50 ng of pCDNA3.1-3xFLAG-CDK12/13 kinase domain, 50 ng of pCDNA3.1-CCNK-3xHA, and 400 ng of the empty pCDNA3.1 vector. Twenty-four hours post transfection, cells were treated with HQ461 for 8 hr, and lysates were collected for western blotting with anti-FLAG and anti-HA antibodies.

[2] = target: T3, FLAG-Avi-DDB1 and His-CDK12KD G731E/His-CCNKΔC (Homo sapiens, UniProt Q9NYV4, G731E); experiment: AlphaScreen assay, G731E; type: binding; conditions: for AlphaScreen: G731E, raw signal
T3 construct: Human CDK12KD (residues 715–1052); made in house; host or cells: Sf9 or High Five (CDK12KD/CCNKΔC, co-infected with yeast CAK1); 293F with BirA (FLAG-Avi-DDB1)
Procedure: (§1) Biotinylated FLAG-Avi-DDB1 (3 µM) and 6xHis-CDK12KD/6xHis-CCNKΔC (WT or G731E/R mutants) (3 µM) were mixed in an assay buffer (50 mM HEPES, pH7.5, 300 mM NaCl, 0.5 mM TCEP, 0.1% NP-40, 0.1% BSA) and a serial dilution of HQ461.The protein-compound mix was transferred to 384-well plates (Corning, Corning, USA); 15 μL per well. After a 1 hr room temperature incubation, 10 µL of nickel chelate (Ni-NTA) acceptor beads (PerkinElmer, Waltham, USA, Waltham, USA, 6760619C) (1:100 diluted with assay buffer) was added per well. After incubation in the dark for 1 hr at room temperature, 10 μL of streptavidin donor beads (PerkinElmer, Waltham, USA, 6760619C) (1:100 diluted in assay buffer) was added per well. After another 1 hr incubation, AlphaScreen signal was measured on the EnVision multimode plate reader (PerkinElmer, Waltham, USA). For THZ531 competition, FLAG-Avi-DDB1, 6xHis-CDK12KD/6xHis-CCNKΔC mix was preincubated with 5 μM of THZ531 for 30 min on ice followed by the procedures described above.

[3] = target: T4, FLAG-Avi-DDB1 and His-CDK12KD G731R/His-CCNKΔC (Homo sapiens, UniProt Q9NYV4, G731R); experiment: AlphaScreen assay, G731R; type: binding; conditions: for AlphaScreen: G731R, raw signal
T4 construct: Human CDK12KD (residues 715–1052); made in house; host or cells: Sf9 or High Five (CDK12KD/CCNKΔC, co-infected with yeast CAK1); 293F with BirA (FLAG-Avi-DDB1)
Procedure: as §1

T3 sequence (Q9NYV4 715-1052 G731E limits assumed): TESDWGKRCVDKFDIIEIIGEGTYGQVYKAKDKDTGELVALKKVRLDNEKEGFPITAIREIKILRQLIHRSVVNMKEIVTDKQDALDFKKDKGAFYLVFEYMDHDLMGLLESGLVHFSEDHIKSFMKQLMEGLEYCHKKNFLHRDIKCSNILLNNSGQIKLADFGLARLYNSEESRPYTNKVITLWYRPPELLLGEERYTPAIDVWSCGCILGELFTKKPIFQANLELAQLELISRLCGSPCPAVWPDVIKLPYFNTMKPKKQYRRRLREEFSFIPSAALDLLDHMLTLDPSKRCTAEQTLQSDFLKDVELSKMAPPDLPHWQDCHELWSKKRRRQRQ
T3 sequence (O75909 11-267 partner limits assumed): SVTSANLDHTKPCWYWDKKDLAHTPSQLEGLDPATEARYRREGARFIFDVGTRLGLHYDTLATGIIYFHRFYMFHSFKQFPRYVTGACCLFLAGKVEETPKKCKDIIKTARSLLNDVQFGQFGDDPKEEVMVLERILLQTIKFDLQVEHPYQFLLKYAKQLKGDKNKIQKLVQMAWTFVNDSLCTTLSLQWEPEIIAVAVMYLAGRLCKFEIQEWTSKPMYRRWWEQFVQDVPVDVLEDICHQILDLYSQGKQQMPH
T4 sequence (Q9NYV4 715-1052 G731R limits assumed): as the sequence (Q9NYV4 715-1052 G731E limits assumed) above, with E17R counted along it
T4 sequence (O75909 11-267 partner limits assumed): as the sequence (O75909 11-267 partner limits assumed) above
T2 sequence (O75909 whole entry, the tested form may be a part): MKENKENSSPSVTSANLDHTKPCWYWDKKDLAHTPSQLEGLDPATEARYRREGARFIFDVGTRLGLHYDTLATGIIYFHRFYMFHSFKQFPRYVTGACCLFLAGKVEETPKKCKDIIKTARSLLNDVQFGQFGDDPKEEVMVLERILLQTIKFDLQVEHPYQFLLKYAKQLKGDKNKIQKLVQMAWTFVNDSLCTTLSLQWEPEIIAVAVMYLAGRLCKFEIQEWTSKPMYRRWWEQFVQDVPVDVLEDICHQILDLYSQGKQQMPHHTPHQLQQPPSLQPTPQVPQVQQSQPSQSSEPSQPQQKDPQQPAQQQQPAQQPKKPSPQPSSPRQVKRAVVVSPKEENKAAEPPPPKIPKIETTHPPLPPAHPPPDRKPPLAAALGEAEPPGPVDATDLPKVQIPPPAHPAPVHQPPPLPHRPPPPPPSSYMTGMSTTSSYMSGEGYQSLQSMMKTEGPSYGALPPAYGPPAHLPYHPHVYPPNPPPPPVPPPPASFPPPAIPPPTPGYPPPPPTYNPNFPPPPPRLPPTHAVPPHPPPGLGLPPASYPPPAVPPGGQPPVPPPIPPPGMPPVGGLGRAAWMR
T2 sequence (Q14004 693-1030): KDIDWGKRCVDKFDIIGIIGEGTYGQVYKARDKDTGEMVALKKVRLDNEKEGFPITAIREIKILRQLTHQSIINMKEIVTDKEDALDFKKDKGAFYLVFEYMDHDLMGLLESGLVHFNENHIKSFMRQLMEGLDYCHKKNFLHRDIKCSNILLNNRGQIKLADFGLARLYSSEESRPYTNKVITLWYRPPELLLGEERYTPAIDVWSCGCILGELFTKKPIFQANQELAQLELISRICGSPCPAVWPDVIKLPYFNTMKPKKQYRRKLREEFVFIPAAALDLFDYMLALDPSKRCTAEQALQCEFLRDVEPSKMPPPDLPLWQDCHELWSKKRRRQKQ
T2 sequence (Q16531 2-1140, further chain): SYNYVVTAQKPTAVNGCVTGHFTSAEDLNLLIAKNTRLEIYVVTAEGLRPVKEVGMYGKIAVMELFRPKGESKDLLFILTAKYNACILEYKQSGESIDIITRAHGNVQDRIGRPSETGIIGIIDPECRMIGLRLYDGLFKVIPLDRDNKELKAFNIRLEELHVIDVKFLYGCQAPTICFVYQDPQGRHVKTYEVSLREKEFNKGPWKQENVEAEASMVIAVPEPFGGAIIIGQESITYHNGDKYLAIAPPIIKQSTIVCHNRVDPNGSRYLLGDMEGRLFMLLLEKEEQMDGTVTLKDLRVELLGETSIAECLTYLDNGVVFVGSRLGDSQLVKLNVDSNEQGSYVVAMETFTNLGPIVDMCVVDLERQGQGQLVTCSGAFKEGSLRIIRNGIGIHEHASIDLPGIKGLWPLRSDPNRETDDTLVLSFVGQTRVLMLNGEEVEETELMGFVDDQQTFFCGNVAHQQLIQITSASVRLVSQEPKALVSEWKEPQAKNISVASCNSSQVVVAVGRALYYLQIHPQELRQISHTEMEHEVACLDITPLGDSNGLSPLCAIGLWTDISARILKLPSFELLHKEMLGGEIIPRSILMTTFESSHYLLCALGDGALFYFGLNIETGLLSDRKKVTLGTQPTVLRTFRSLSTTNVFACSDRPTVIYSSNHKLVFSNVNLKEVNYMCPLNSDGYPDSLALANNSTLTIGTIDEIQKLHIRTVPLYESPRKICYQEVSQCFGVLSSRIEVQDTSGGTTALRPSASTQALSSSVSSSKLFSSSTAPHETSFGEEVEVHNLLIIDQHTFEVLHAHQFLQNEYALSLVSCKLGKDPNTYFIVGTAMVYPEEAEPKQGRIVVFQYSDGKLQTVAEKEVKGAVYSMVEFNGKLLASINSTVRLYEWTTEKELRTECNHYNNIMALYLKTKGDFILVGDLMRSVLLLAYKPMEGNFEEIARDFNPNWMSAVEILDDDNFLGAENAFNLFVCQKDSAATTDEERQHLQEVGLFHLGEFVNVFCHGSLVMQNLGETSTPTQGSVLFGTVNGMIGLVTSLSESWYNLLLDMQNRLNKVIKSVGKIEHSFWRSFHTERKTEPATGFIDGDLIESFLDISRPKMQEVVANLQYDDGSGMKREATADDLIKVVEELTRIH
T1 sequence (Q9NYV4 whole entry): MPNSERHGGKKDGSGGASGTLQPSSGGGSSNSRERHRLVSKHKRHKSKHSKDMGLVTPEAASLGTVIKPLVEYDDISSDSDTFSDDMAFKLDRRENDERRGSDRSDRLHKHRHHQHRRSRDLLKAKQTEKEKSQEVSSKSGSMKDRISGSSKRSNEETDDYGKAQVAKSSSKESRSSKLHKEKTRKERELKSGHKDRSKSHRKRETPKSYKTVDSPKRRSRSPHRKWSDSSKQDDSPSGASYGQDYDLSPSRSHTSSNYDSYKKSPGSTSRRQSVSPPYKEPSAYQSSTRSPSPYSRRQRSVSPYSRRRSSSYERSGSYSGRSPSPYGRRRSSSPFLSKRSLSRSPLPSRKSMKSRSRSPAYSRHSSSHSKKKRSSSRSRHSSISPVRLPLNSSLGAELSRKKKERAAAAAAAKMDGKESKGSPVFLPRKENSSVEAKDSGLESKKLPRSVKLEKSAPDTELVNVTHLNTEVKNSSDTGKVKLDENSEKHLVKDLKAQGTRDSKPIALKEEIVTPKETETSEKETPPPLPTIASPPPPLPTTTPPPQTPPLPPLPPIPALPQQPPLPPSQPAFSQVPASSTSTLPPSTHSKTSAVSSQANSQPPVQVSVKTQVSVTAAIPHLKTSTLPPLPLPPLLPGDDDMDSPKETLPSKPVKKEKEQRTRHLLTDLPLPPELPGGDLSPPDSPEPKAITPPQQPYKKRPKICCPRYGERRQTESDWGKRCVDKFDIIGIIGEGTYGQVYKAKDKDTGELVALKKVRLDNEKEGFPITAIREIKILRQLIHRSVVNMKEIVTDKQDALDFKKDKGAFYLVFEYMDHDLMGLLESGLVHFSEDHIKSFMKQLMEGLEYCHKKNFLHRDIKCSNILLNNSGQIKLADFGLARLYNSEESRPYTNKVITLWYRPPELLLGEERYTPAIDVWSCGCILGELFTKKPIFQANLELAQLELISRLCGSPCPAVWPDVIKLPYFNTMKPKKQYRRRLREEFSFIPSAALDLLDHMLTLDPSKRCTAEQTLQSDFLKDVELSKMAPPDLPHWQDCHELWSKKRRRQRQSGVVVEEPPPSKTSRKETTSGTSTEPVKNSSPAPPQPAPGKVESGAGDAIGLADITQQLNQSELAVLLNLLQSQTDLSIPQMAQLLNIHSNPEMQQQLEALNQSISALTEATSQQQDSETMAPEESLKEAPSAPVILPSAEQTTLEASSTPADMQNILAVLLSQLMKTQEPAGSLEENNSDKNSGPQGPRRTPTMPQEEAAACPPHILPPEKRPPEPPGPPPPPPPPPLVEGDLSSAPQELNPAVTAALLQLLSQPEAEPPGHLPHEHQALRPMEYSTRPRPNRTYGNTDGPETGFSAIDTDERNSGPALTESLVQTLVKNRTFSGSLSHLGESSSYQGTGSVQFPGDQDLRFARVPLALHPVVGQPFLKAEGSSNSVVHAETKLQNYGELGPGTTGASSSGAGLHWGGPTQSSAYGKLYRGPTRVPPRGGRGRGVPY
T1 sequence (O75909 whole entry partner): as the sequence (O75909 whole entry, the tested form may be a part) above

Cc1cccc(Nc2nc(CC(=O)Nc3ncc(C)s3)cs2)n1 [HQ461, 2-(2-((6-methylpyridin-2-yl)amino)thiazol-4-yl)-N-(5-methylthiazol-2-yl)acetamide]
reduction of CDK12 protein level (CDK12): 50% | reduction of the CCNK protein level (CCNK; A549, 4 hr treatment): > 8 fold | CCNK protein level in cells with CDK12 G731E or G731R mutation (CCNK; A549 CDK12 G731E/G731R cells): not affected | CCNK degradation with co-expressed wild-type CDK13 kinase domain [1]: sufficient for mediating HQ461-dependent degradation of CCNK | AlphaScreen ([2]; HQ461 2.22e-6 M): 1248 and 1240 and 1185 | AlphaScreen ([2]; HQ461 6.67e-6 M): 1251 and 1198 and 1100 | AlphaScreen ([2]; HQ461 2e-5 M): 1233 and 1200 and 1143 | AlphaScreen ([2]; HQ461 2.47E-07 M): 1234 and 1107 and 1145 | AlphaScreen ([2]; HQ461 2.74E-08 M): 1248 and 1124 and 1169 | AlphaScreen ([2]; HQ461 7.41E-07 M): 1137 and 1171 and 1109 | AlphaScreen ([2]; HQ461 8.23E-08 M): 1304 and 1157 and 1110 | complex formation with DDB1, G731E mutant ([2]; even with 20 µM of HQ461): did not form a complex with DDB1 | AlphaScreen ([3]; HQ461 2.22e-6 M): 1045 and 1023 and 975 | AlphaScreen ([3]; HQ461 6.67e-6 M): 1107 and 1087 and 1018 | AlphaScreen ([3]; HQ461 2e-5 M): 1057 and 1369 and 1206 | AlphaScreen ([3]; HQ461 2.47E-07 M): 1123 and 959 and 996 | AlphaScreen ([3]; HQ461 2.74E-08 M): 1124 and 1117 and 796 | AlphaScreen ([3]; HQ461 7.41E-07 M): 1008 and 1006 and 1085 | AlphaScreen ([3]; HQ461 8.23E-08 M): 1162 and 1262 and 828 | complex formation with DDB1, G731R mutant ([3]; even with 20 µM of HQ461): did not form a complex with DDB1
